Test results reported in patent US9000028B2, “Indole and indazole compounds as an inhibitor of cellular necrosis” (LG Life Sciences Ltd., priority 2007, dated 2015).
Like-named read-outs stand apart in the source and are kept apart here.

Legend:
Format in all cases: cell-based
[1] = tested on: cardiac cells (H9C2, white rat cardiomyocyte); assay: Protective effect when tBHP was treated on cardiac cells (SRB method); conditions: tBHP 400 uM, 2 h
Description: (§1) In order to determine the protective effect on pancreatic cells, Linm5F cells, a sort of the beta cells, were distributed into the 96-well plate in the amount of 2×10^4 cells/well, and incubated for 24 h. The Example compounds were serially diluted by 3-fold to the final concentration of 30, 10, 3, 1, 0.3, 0.1 uM, by which each well was treated for 1 h. Cells were treated with tBHP at the final concentration of 400 uM, and further incubated for 5 h. Protective effects were determined using SRB (Sulforhodamine B Protein) method in which total amount of cellular protein is stained. Briefly, cells were incubated for 5 h, 50 uL of 4% formaldehyde solution was added to each well to fix the cells, and stored for about 30 min at room temperature. After discarding the media, each well was washed with distilled water 2-3 times, and the plate was dried in an oven at 50° C. 50 uL of SRB solution was added to each well, and placed for about 30 min at room temperature. After removing SRB solution, the plate was washed with 1% acetic acid solution 2-3 times. After drying the plate in an oven at 50° C., 100 uL of 10 mM Tris was added to elute SRB which was staining the intracellular protein.
In order to assess the protective effect on cardiac cells, H9C2 cells were distributed in the amount of 1.5×10^4 cells/well, and incubated for 24 h. The Example compounds were serially diluted by 3-fold to the final concentration of 30, 10, 3, 1, 0.3, 0.1 uM, by which each well was treated for 45 min. Cells were treated with tBHP at the final concentration of 400 uM, and incubated for 2 h. Protective effect of each compound was determined using the same SRB method as in Linm5F of above mentioned 2).

[2] = tested on: primary hepatocytes isolated from rats; assay: Hepatocyte protective effect against substances deriving hepatocyte toxicity (WST-1 viability); conditions: doxorubicin, 24-48 h, read-out: EC50, cell protective effects against doxorubicin in hepatocytes
Procedure, shortened: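 Hepatocytes from two-step collagenase perfusion (≥90% viable) seeded on collagen, pretreated 30 min with compound (5-step 2- or 3-fold dilutions from 30, 10 or 1 uM; 0.2% DMSO), then exposed to hepatotoxic agents. WST-1 absorbance at 440 nm after 24-48 h; EC50 = concentration giving 50% of maximal protection.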

brain cells (SK-N-MC) = assay: Protective effect when tBHP was treated on brain cells (LDH assay); conditions: Homo sapiens, tBHP 400 uM, 6 h
Description: In order to assess the protective effect on brain cells, 2×10^4 brain cells were distributed into the 96-well plate using DMEM media (Gibco, 10% FBS), and incubated for 24 h. The Example compounds were serially diluted by 3-fold to the final concentration of 30, 10, 3, 1, 0.3, 0.1 uM, by which each well was treated for 1 h. Cells were treated with tBHP at the final concentration of 400 uM, and incubated for 6 h. 50 uL of media was taken from each well to proceed with LDH assay (Promega). In LDH assay, 50 uL of media was mixed with 50 uL of assay solution. After the reaction for 30 min at room temperature, absorbance was measured at 490 nm using SpectraMax (Molecular Device).

[3] = tested on: pancreatic cells (Linm5F); assay: Protective effect when tBHP was treated on pancreatic cells (SRB method); conditions: tBHP 400 uM, 5 h
Description: as §1

| Compound | EC50 ([2]; Rattus norvegicus, Hepatocyte) [nM] | other results |
| --- | --- | --- |
| O=S1(=O)CCN(Cc2cc(NCC3CCOCC3)c3[nH]c(-c4ccccc4)c(Br)c3c2)CC1 [Example 74, (Tetrahydropyran-4-ylmethyl)-(3-bromo-5-(1,1-dioxo-thiomorpholin-4-yl)methyl-2-phenyl-1H-indol-7-yl)-amine] | 350 | EC50 [1]: ≤ 200 nM |
| Cc1cc(N(C)C2CCOCC2)c2[nH]c(-c3ccccc3)cc2c1 [Example 55, (Tetrahydropyran-4-yl)-(5-methyl-2-phenyl-1H-indol-7-yl)-methyl-amine] | 300 | EC50 (brain cells (SK-N-MC)): ≤ 100 nM |
| CC(=O)Nc1ccc(-c2cc3cc(N4CCS(=O)(=O)CC4)cc(N(C4CCCC4)C4CCCC4)c3[nH]2)cc1 [Example 86, Dicyclopentyl-{5-(1,1-dioxo-thiomorpholin-4-yl)-2-[4-(acetyl)aminophenyl]-1H-indol-7-yl}-amine] | 1440 | EC50 [1]: 500 nM |
| COC(=O)CNc1cc(F)cc2cc(-c3ccccc3)[nH]c12 [Example 106, 2-(5-Fluoro-2-phenyl-1H-indol-7-yl)amino-acetic acid methyl ester] | 450 | EC50 [3]: ≤ 100 nM |
| CS(=O)(=O)N1CCC(Nc2cc(CN3CCS(=O)(=O)CC3)cc3cc(-c4ccccc4)[nH]c23)CC1 [Example 97, (5-(1,1-Dioxo-thiomorpholin-4-yl)methyl-2-phenyl-1H-indol-7-yl)-(1-methanesulfonyl-piperidin-4-yl)-amine] | 90 | EC50 [1]: ≤ 200 nM |
| Cc1ccc(Nc2cc(Cl)cc3c(-c4ccccc4)c[nH]c23)nc1 [Example 115, (5-Chloro-3-phenyl-1H-indol-7-yl)-(5-methyl-pyridin-2-yl)-amine] | > 2000 | EC50 (brain cells (SK-N-MC)): 260 nM |
| O=C1CN(Cc2cc(NC3CCOCC3)c3[nH]c(-c4ccccc4)cc3c2)CCN1 [Example 37, (Tetrahydropyran-4-yl)-[2-phenyl-5-(2-oxo-piperazin-4-yl)methyl-1H-indol-7-yl]amine] | 150 | EC50 (brain cells (SK-N-MC)): ≤ 100 nM |
| O=C(O)[C@@H]1CCCN1C(=O)c1cc(NC2CCCC2)c2[nH]c(-c3ccccc3)cc2c1 [Example 117, (2S)-1-(7-cyclopentylamino-2-phenyl-1H-indole-5-carbonyl)-pyrrolidine-2-carboxylic acid] | 260 | EC50 [1]: ≤ 200 nM |
| CC(C)(C)OC(=O)Nc1ccc(-c2cc3cc(Cl)cc(NC4CCCC4)c3[nH]2)cc1 [Example 78, t-Butyl N-[4-[5-chloro-7-(cyclopentylamino)-1H-indol-2-yl]phenyl]carbamate] | 210 |  |
| O=C1CN(Cc2c(-c3ccccc3)[nH]c3c(NCC4CCOCC4)cc(Cl)cc23)CCN1 [Example 71, (Tetrahydropyran-4-ylmethyl)-(5-chloro-3-(2-oxo-piperazin-4-yl)methyl-2-phenyl-1H-indol-7-yl)-amine] | 254 |  |
| O=S1(=O)CCN(CCc2cccc(-c3cc4cc(Cl)cc(NC5CCOCC5)c4[nH]3)c2)CC1 [Example 152, {5-Chloro-2-[3-(1,1-dioxo-thiomorpholin-4-yl)ethylphenyl]-1H-indol-7-yl}-(tetrahydropyran-4-yl)-amine] | 240 |  |
| Fc1cc(NC2CCN(C3CCOCC3)CC2)c2[nH]c(-c3ccccc3)cc2c1 [Example 61, [1-(Tetrahydropyran-4-yl)piperidin-4-yl]-(5-fluoro-2-phenyl-1H-indol-7-yl)amine] | 260 |  |
| CCOC(=O)c1cc(NC2CCCC2)c2[nH]c(-c3ccccc3)cc2c1 [Example 28, 7-(Cyclopentyl)amino-2-phenyl-1H-indole-5-carboxylic acid ethyl ester] | 170 |  |
| CN1CCC(CNc2cc(F)cc3cc(-c4ccccc4)[nH]c23)CC1 [Example 59, (1-Methyl-piperidinemethyl-4-yl)-[5-fluoro-2-phenyl-1H-indol-7-yl]amine] |  | EC50 ([2]; rat primary hepatocytes): 200 nM |
| O=C(O)CNc1cc(F)cc2cc(-c3ccccc3)[nH]c12 [Example 107, 2-(5-Fluoro-2-phenyl-1H-indol-7-yl)amino-acetic acid] | 350 | EC50 [3]: ≤ 100 nM |
| Cc1cc(NCC2CCCC2)c2[nH]c(-c3ccccc3)cc2c1 [Example 42, Cyclopentylmethyl-(5-methyl-2-phenyl-1H-indol-7-yl)-amine] | 40 |  |

| Compound | EC50 ([2]; Rattus norvegicus, Hepatocyte) [nM] | other results |
| --- | --- | --- |
| O=C(Cc1cc(NC2CCCC2)c2[nH]c(-c3ccccc3)cc2c1)N1CCCC1 [Example 119, 2-(7-Cyclopentylamino-2-phenyl-1H-indol-5-yl]-1-pyrrolidin-1-yl-ethanone] | 140 |  |
| O=C(O)c1ccccc1-c1cc2cc(Cl)cc(NC3CCCC3)c2[nH]1 [Example 134, 2-(5-Chloro-7-cyclopentylamino-1H-indol-2-yl)-benzoic acid] | > 1000 |  |
| O=C(O)c1cc(NC2CCCC2)c2[nH]c(-c3ccccc3)cc2c1 [Example 30, 7-(Cyclopentyl)amino-2-phenyl-1H-indole-5-carboxylic acid] | 140 |  |
| Cc1cc(NC2CCNCC2)c2[nH]c(-c3ccccc3)cc2c1 [Example 90, (5-Methyl-2-phenyl-1H-indol-7-yl)-piperidin-4-yl-amine] | 146 |  |
| Clc1cc(NC2CCOCC2)c2[nH]c(-c3cccc(CC4CCNC4)c3)cc2c1 (centres unmarked) [Example 149, [5-Chloro-2-(3-pyrrolidin-4-ylmethylphenyl)-1H-indol-7-yl]-(tetrahydropyran-4-yl)-amine] | 550 |  |
| Clc1cc(NC2CCCC2)c2[nH]c(-c3ccccc3)cc2c1 [Example 46, Cyclopentyl-(5-chloro-2-phenyl-1H-indol-7-yl)-amine] | 50 |  |
| Clc1cc(NC2CCN(Cc3ccccc3)C2)c2[nH]c(-c3ccccc3)cc2c1 (centres unmarked) [Example 51, (1-Benzylpyrrolidin-3-yl)-(5-chloro-2-phenyl-1H-indol-7-yl)-amine] | 230 |  |
| O=C(O)[C@@H]1CCCN1C(=O)c1cc(NC2CCOCC2)c2[nH]c(-c3ccccc3)cc2c1 [Example 118, (2S)-1-[2-phenyl-7-(tetrahydropyran-4-yl)amino-1H-indole-5-carbonyl]-pyrrolidine-2-carboxylic acid] | 1100 |  |
| CC(=O)Nc1ccc(-c2cc3cc(N4CCS(=O)(=O)CC4)cc(NC4CCOCC4)c3[nH]2)cc1 [Example 89, (Tetrahydropyran-4-yl)-{5-(1,1-dioxo-thiomorpholin-4-yl)-2-[4-(acetyl)aminophenyl]-1H-indol-7-yl}-amine] | 300 |  |
| Clc1cc(NC2CCCCC2)c2[nH]c(-c3ccccc3)cc2c1 [Example 47, Cyclohexyl-(5-chloro-2-phenyl-1H-indol-7-yl)-amine] | 50 |  |
| OCC(CO)Nc1cc(Cl)cc2cc(-c3ccccc3)[nH]c12 [Example 54, 2-[(5-Chloro-2-phenyl-1H-indol-7-yl)amino]propan-1,3-diol] | 220 |  |
| CC(Nc1cc(Cl)cc2cc(-c3ccccc3)[nH]c12)C(=O)O (centres unmarked) [Example 112, 2-(5-Chloro-2-phenyl-1H-indol-7-yl)amino-propionic acid] | 450 |  |
| Cc1cc(NC2CCCC2)c2[nH]c(-c3cnccn3)cc2c1 [Example 6, Cyclopentyl-[5-methyl-2-(pyrazin-2-yl)-1H-indol-7-yl]-amine] | 300 |  |
| Clc1cc(NC2CCOCC2)c2[nH]c(-c3ccccc3)c(CN3CCOCC3)c2c1 [Example 68, (Tetrahydropyran-4-yl)-(5-chloro-3-(morpholin-4-yl)methyl-2-phenyl-1H-indol-7-yl)-amine] | 320 |  |
| Cc1cc(NC2CCN(S(C)(=O)=O)CC2)c2[nH]c(-c3ccccc3)cc2c1 [Example 91, [1-(Methanesulfonyl)piperidin-4-yl]-(5-methyl-2-phenyl-1H-indol-7-yl)-amine] | 42 |  |
| CC(Nc1cc(Oc2ccccc2)cc2cc(-c3ccccc3)[nH]c12)C(=O)O (centres unmarked) [Example 111, 2-(5-Phenoxy-2-phenyl-1H-indol-7-yl)amino-propionic acid] | 257 |  |
